SMILES strings stand for the structures.

The text below walks through data of the SangsterLogP compilation.

The nature of the series: method code SF-AS, from DOI: 10.1111/j.1399-3011.1986.tb03252.x. Conditions: pH 7.0.

Regarding `C=CCC(CC=C)(NC(C)=O)C(N)=O`, the logD was determined as 0.05.
`CC(=O)NC(C)(C)C(N)=O`: the logD was -0.87.
`CC(=O)NC(Cc1ccccc1)(Cc1ccccc1)C(N)=O` showed a logD of 2.09.
The compound `CCCC(CCC)(NC(C)=O)C(N)=O` returned a logD of 0.75.
Take `CC(=O)NCC(N)=O`: the logD is -1.68.
For the compound `C=CCC(NC(C)=O)C(N)=O` (stereo not drawn), the logD was -0.86.
`CC(=O)NC(C)C(N)=O` (stereo not drawn) displayed a pH-dependent lipophilicity (logD) of -1.41.
Under `CCCC(NC(C)=O)C(N)=O` (stereo not drawn) stands -0.45.

Usually logD stands for lipophilicity at a set pH, counting ionised and neutral species. Low readings indicate lower lipophilicity, high ones higher lipophilicity.
